Converted amounts (≈) assume the structure as drawn. Where two headings read alike, the source gives them in different places. Residues, ends and D or L forms follow the SMILES beside them.
Test system: primary ovarian cancer cells
Type: cell-based, human
Conditions: for growth of human primary ovarian cells: different concentrations, in vitro, n=12, Figure S1
Procedure: Fresh primary ovarian tumor tissues that were assessed and classified as serous ovarian adenocarcinoma (III-IV grade) according to WHO criteria were collected from 53 ovarian cancer patients who underwent initial debulking surgery at the first affiliated hospital of Anhui Medical University between June 2012 and June 2014. All patients had not received adjuvant therapies, such as chemotherapy or radiotherapy, prior to surgery. For comparison, normal ovarian glandular epithelium cells (NOGECs) were cultured from fresh primary normal ovarian tissues harvested from 7 patients with uterine fibromas, which were confirmed as negative for any neoplastic disease by pathological examination. Prior to tissue deposition, all patients signed written consent forms confirming their donation of tissue for research purposes according to the Declaration of Helsinki. This study was approved by the Anhui Medical University Review Board. Tumor or normal ovarian tissues were cut into small 1.0 mm^3 pieces, rinsed two times in phosphate buffered saline (PBS) and digested with 0.25 % trypsin in a sterile centrifuge tube at 37 °C for 30 min. To obtain a single cell suspension cell, digested tissues were filtered with a 100 μm cell strainer. Cells were collected by centrifugation at 1000 rpm for five minutes, and the cell pellet was re-suspended in Dulbecco’s modified eagle medium (DMEM) supplemented with 10 % fetal bovine serum (FBS). Cells were subsequently cultured in DMEM containing 0.1 mg/L epidermal growth factor (EGF), 0.1 mg/L insulin-like growth factor (IGF) and 0.1 mg/L beta-estradiol with 10 % FBS in 5 % CO2 at 37 °C. Once cells reached 70 to 80 % confluence, cell culture medium was drained from the flask, and cells were digested with 0.25 % collagenase II until approximately 1/3 of the cells fell to the bottom of the dish by eye using a microscope. Due to their initial shedding, most fibroblasts were eliminated by collagenase digestion. The remaining cells were cultured in 5 % CO2 at 37 °C. To determine purity, cells were analyzed using immunofluorescence of cytokeratin 7 (for ovarian cancer cells) or cytokeratin 19 (for normal ovarian epithelium cells).
Primary ovarian cancer cells were seeded into 96-well plates in sextuplicate at a starting density of 5 × 10^3 cells/well and incubated with ACFP at the concentrations: 0 (as control), 5 × 10^−6, 5 × 10^−5, 5 × 10^−4, 5 × 10^−3, 5 × 10^−2, 5 × 10^−1 and 5 g/L for 24, 48 and 72 h, respectively. Cells treated with paclitaxel at 5 × 10^−4 g/L were included in the same plate as a positive control. Cell viability was later measured using the WST-1 (water-soluble tetrazolium 1) cell viability and cytotoxicity assay kit (Beyotime, Haimen, China) according to the manufacturer’s instructions. The percent viability of cells was calculated using the formula to calculate the cell viability ratio (VR): VR (%) = (the experimental group A450nm value/control group A450nm value) × 100 %. To assess general toxicity of ACFP, viability of normal ovarian cells treated with ACFP was assayed using the same procedure. The effect of ACFP was compared with LfcinB and PGPIPN (the products of Shanghai Sangon Biological Engineering Technology, China). Each experiment was performed in two independent sets.

Row | IC50, cell viability (24 h) [µg/mL] | IC50, cell viability (48 h) [µg/mL] | IC50, cell viability (72 h) [µg/mL] | SMILES | growth of human primary ovarian cells (48 h)
1 | – | – | – | CC[C@H](C)[C@@H]1NC(=O)[C@H](CO)NC(=O)[C@@H]2CCCN2C(=O)[C@H](C)NC(=O)CNC(=O)[C@H](CC(C)C)NC(=O)[C@H](CCCCN)NC(=O)[C@H](CCCCN)NC(=O)[C@H](CCSC)NC(=O)[C@H](CCCNC(=N)N)NC(=O)[C@H](Cc2c[nH]c3ccccc23)NC(=O)[C@H](CCC(N)=O)NC(=O)[C@H](Cc2c[nH]c3ccccc23)NC(=O)[C@H](CCCNC(=N)N)NC(=O)[C@H](CCCNC(=N)N)NC(=O)[C@@H](NC(=O)[C@H](CCCCN)NC(=O)[C@@H](N)Cc2ccccc2)CSSC[C@@H](C(=O)N[C@H](C(=O)N[C@@H](CCCNC(=N)N)C(=O)N[C@@H](CCCNC(=N)N)C(=O)N[C@@H](C)C(=O)N[C@@H](Cc2ccccc2)C(=O)O)C(C)C)NC(=O)[C@H]([C@@H](C)O)NC1=O [LfcinB] | decreased growth
2 | 14.5 (≈ 24.4 µM) | 9.3 (≈ 15.7 µM) | 1.24 (≈ 2.09 µM) | CC[C@H](C)[C@H](NC(=O)[C@@H]1CCCN1C(=O)CNC(=O)[C@@H]1CCCN1)C(=O)N1CCC[C@H]1C(=O)N[C@@H](CC(N)=O)C(=O)O [PGPIPN] (H-PGPIPN-OH) | decreased growth
